Data from ChEMBL document CHEMBL1135169, “4,4-Disubstituted cyclohexylamine NK(1) receptor antagonists I” (Bioorg Med Chem Lett, 2002).

These molecules were tested on Gerbillinae (assay: Inhibitory activity when the NK1 agonist challenge was given 2 hr after dosing at 3 mg/kg, iv). Settings: not given.
Format: functional

Row | SMILES | inhibition in vivo at 3 mg/kg
1 | O=C(NCc1cc(C(F)(F)F)cc(C(F)(F)F)c1)[C@]1(c2ccccc2)CC[C@H](N2CCC(c3ccc(F)cc3)CC2)CC1 | 15%

The molecules below were run on Gerbillinae (assay: Inhibitory dose after 2 hours required to produce blockade of foot-tapping activity induced by central infusion of NK1-agonist GR-73632). Settings: read-out: ID50 (the source's name).
Format: functional

Row | SMILES | ED50
2 | CC(C(=O)N[C@]1(c2ccccc2)CC[C@@H](N2CCC(c3ccc(F)cc3)CC2)CC1)c1cc(C(F)(F)F)cc(C(F)(F)F)c1 (mixture of isomers) | 0.6 mg/kg

The molecules below were run on Gerbillinae (assay: Inhibitory dose after 24 hours required to produce blockade of foot-tapping activity induced by central infusion of NK1-agonist GR-73632). Settings: read-out: ID50 (the source's name).
Format: functional

Row | SMILES | ED50
3 | CC(C(=O)N[C@]1(c2ccccc2)CC[C@@H](N2CCC(c3ccc(F)cc3)CC2)CC1)c1cc(C(F)(F)F)cc(C(F)(F)F)c1 (mixture of isomers) | 1.8 mg/kg

Each molecule was assayed on Gerbillinae (assay: Inhibitory dose required to produce blockade of foot-tapping activity induced by central infusion of NK1-agonist GR-73632). Settings: read-out: ID50 (the source's name).
Format: functional

Row | SMILES | ED50
4 | O=C(NCc1cc(C(F)(F)F)cc(C(F)(F)F)c1)[C@]1(c2ccccc2)CC[C@H](N2CCC(c3ccc(F)cc3)CC2)CC1 | 1.9 mg/kg
5 | CC(C(=O)N[C@]1(c2ccccc2)CC[C@@H](N2CCC(c3ccc(F)cc3)CC2)CC1)c1cc(C(F)(F)F)cc(C(F)(F)F)c1 (mixture of isomers) | 1.7 mg/kg

The molecules below were run against T1, Substance-P receptor (Homo sapiens, UniProt P25103) (assay: Tested for inhibitory concentration expressed as displacement of [125I]-labeled substance P from the cloned Tachykinin receptor 1 expressed in CHO cells at dosage of 1000 nM). Settings: not given.
Format: cell-based

T1 sequence (P25103 whole entry): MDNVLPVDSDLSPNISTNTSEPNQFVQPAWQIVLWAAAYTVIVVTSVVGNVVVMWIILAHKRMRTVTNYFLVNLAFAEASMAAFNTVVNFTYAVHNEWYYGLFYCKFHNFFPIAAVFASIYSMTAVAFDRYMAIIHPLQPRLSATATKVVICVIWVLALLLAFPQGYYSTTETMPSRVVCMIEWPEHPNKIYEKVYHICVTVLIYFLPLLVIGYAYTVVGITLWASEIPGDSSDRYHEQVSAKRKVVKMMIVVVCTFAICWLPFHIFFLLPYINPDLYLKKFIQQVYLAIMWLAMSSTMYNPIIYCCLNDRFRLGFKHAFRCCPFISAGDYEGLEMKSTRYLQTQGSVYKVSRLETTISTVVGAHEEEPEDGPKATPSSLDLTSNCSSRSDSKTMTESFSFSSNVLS

Row | inhibition | SMILES
6 | 50% | O=C(OC[C@]1(c2ccccc2)CC[C@@H](N2CCC(c3ccc(F)cc3)CC2)CC1)c1cc(C(F)(F)F)cc(C(F)(F)F)c1

These molecules were tested against T1, Substance-P receptor (assay: Displacement of [125I]-labeled substance P from the cloned Tachykinin receptor 1). Settings: not given.

Row | IC50 | SMILES
7 | 0.62 nM | CC(C)(NC(=O)[C@]1(c2ccccc2)CC[C@@H](N2CCC(c3ccc(F)cc3)CC2)CC1)c1cc(C(F)(F)F)cc(C(F)(F)F)c1
8 | 250 nM | O=C(NC[C@]1(c2ccccc2)CC[C@@H](N2CCC(c3ccc(F)cc3)CC2)CC1)c1cc(C(F)(F)F)cc(C(F)(F)F)c1
9 | 0.44 nM | O=C(N[C@]1(c2ccccc2)CC[C@@H](N2CCC(c3ccc(F)cc3)CC2)CC1)C(CO)c1cc(C(F)(F)F)cc(C(F)(F)F)c1 (mixture of isomers)
10 | 140 nM | O=C(OCc1cc(C(F)(F)F)cc(C(F)(F)F)c1)[C@]1(c2ccccc2)CC[C@@H](N2CCC(c3ccc(F)cc3)CC2)CC1
11 | 2.5 nM | O=C(OCc1cc(C(F)(F)F)cc(C(F)(F)F)c1)[C@]1(c2ccccc2)CC[C@H](N2CCC(c3ccc(F)cc3)CC2)CC1
12 | 5.3 nM | CC(OC[C@]1(c2ccccc2)CC[C@@H](N2CCC(c3ccc(F)cc3)CC2)CC1)c1cc(C(F)(F)F)cc(C(F)(F)F)c1 (mixture of isomers)
13 | 0.49 nM | CC(C)(C(=O)N[C@]1(c2ccccc2)CC[C@@H](N2CCC(c3ccc(F)cc3)CC2)CC1)c1cc(C(F)(F)F)cc(C(F)(F)F)c1
14 | 1.5 nM | CC(NC(=O)[C@]1(c2ccccc2)CC[C@@H](N2CCC(c3ccc(F)cc3)CC2)CC1)c1cc(C(F)(F)F)cc(C(F)(F)F)c1 (single isomer, unassigned; (-))
15 | 4.2 nM | Fc1ccc(C2CCN([C@H]3CC[C@](COCc4cc(C(F)(F)F)cc(C(F)(F)F)c4)(c4ccccc4)CC3)CC2)cc1
16 | 0.75 nM | OCC(OC[C@]1(c2ccccc2)CC[C@@H](N2CCC(c3ccc(F)cc3)CC2)CC1)c1cc(C(F)(F)F)cc(C(F)(F)F)c1 (mixture of isomers)
17 | 6.3 nM | O=C(NC[C@]1(c2ccccc2)CC[C@H](N2CCC(c3ccc(F)cc3)CC2)CC1)c1cc(C(F)(F)F)cc(C(F)(F)F)c1
18 | 150 nM | O=C(NCc1cc(C(F)(F)F)cc(C(F)(F)F)c1)[C@]1(c2ccccc2)CC[C@@H](N2CCC(c3ccc(F)cc3)CC2)CC1
19 | 0.34 nM | O=C(NCc1cc(C(F)(F)F)cc(C(F)(F)F)c1)[C@]1(c2ccccc2)CC[C@H](N2CCC(c3ccc(F)cc3)CC2)CC1
20 | 85 nM | O=C(Cc1cc(C(F)(F)F)cc(C(F)(F)F)c1)N[C@]1(c2ccccc2)CC[C@@H](N2CCC(c3ccc(F)cc3)CC2)CC1
21 | 120 nM | O=C(OC[C@]1(c2ccccc2)CC[C@H](N2CCC(c3ccc(F)cc3)CC2)CC1)c1cc(C(F)(F)F)cc(C(F)(F)F)c1
22 | 0.29 nM | O=C(NC(CO)c1cc(C(F)(F)F)cc(C(F)(F)F)c1)[C@]1(c2ccccc2)CC[C@@H](N2CCC(c3ccc(F)cc3)CC2)CC1 (mixture of isomers)
23 | 0.63 nM | CC(C(=O)N[C@]1(c2ccccc2)CC[C@@H](N2CCC(c3ccc(F)cc3)CC2)CC1)c1cc(C(F)(F)F)cc(C(F)(F)F)c1 (mixture of isomers)
24 | 0.35 nM | CC(NC(=O)[C@]1(c2ccccc2)CC[C@@H](N2CCC(c3ccc(F)cc3)CC2)CC1)c1cc(C(F)(F)F)cc(C(F)(F)F)c1 (stereo in doubt; (+)-29a)
25 | 82 nM | Fc1ccc(C2CCN([C@H]3CC[C@@](CNCc4cc(C(F)(F)F)cc(C(F)(F)F)c4)(c4ccccc4)CC3)CC2)cc1
26 | 59 nM | Fc1ccc(C2CCN([C@H]3CC[C@@](COCc4cc(C(F)(F)F)cc(C(F)(F)F)c4)(c4ccccc4)CC3)CC2)cc1
27 | 0.77 nM | CC(NC(=O)[C@]1(c2ccccc2)CC[C@@H](N2CCC(c3ccc(F)cc3)CC2)CC1)c1cc(C(F)(F)F)cc(C(F)(F)F)c1 (mixture of isomers)
28 | 40 nM | Fc1ccc(C2CCN(C3CCC(CCCc4cc(C(F)(F)F)cc(C(F)(F)F)c4)(c4ccccc4)CC3)CC2)cc1 (mixture of isomers)
29 | 1.7 nM | Fc1ccc(C2CCN([C@H]3CC[C@](CNCc4cc(C(F)(F)F)cc(C(F)(F)F)c4)(c4ccccc4)CC3)CC2)cc1
30 | 0.7 nM | O=C(Cc1cc(C(F)(F)F)cc(C(F)(F)F)c1)N[C@]1(c2ccccc2)CC[C@H](N2CCC(c3ccc(F)cc3)CC2)CC1

Row | SMILES | IC50
31 | O=C(NCc1cc(C(F)(F)F)cc(C(F)(F)F)c1)C1(c2ccccc2)CCNCC1 | 130 nM

Each molecule was assayed against T1, Substance-P receptor (assay: Tested for inhibitory concentration expressed as displacement of [125I]-labeled substance P from the cloned human Tachykinin receptor 1 expressed in CHO cells). Settings: not given.
Format: cell-based

Row | SMILES | IC50
32 | FC(F)(F)c1cc(CO[C@H]2C3CCN(CC3)[C@H]2c2ccccc2)cc(C(F)(F)F)c1 | 0.2 nM
